Measured values reported in patent publication US11213508B2, “Compositions comprising urolithins and uses thereof for the stimulation of insulin secretion” (Centre National de la Recherche Scientifique (CNRS), priority 2013, dated 2022).

What was measured:
[1] = test system: INS-1 insulin-secreting β-cells; experiment: Insulin secretion in INS-1 cells in the presence of oxidative stress (H2O2); type: cell-based; conditions: 8.3 mmol·L^−1 glucose + H2O2; for concentration active in preventing insulin secretion impairment induced by H2O2: lowest active concentration
Protocol: Before the treatment, RPMI medium was removed and the cells were washed twice with HEPES-balanced Krebs-Ringer bicarbonate buffer (KRB) containing (in mmol·L^−1): 123 NaCl, 5.4 KCl, 1.3 KH2PO4, 2.7 MgSO4, 2.9 CaCl2, 5 NaHCO3 and 20 HEPES, pH 7.5, with 2 g·L^−1 bovine serum albumin (KRB/BSA). Cells were incubated for 1 h (5% CO2, 37° C.) in KRB medium containing 8.3 mmol·L^−1 glucose (glucose-stimulated secretion) in the presence or absence of the compounds tested. At the end of the 1 h incubation period, the medium was sampled and stored at −20° C. until the insulin assay. Insulin concentration in cell supernatants was determined using the homogeneous time resolved fluorescence technology (HTRF), according to the manufacturer's instructions (HTRF insulin assay kit, Cisbio International, Bagnols-sur-Ceze, France). Briefly, two anti-insulin antibodies were used; one labelled with Eu^3+-Cryptate and one labelled with XL665 recognizing distinct epitopes. When these two fluorophores bind to insulin molecules, the two antibodies come into close proximity, allowing fluorescence resonance energy transfer (FRET) to occur between the Eu^3+-Cryptate and the XL665. This FRET increases proportionally with the insulin concentrations. All the experiments were performed at least in quadruplicate.
(§1) For protection experiments, INS-1 cells were pre-incubated with the indicated concentrations of urolithins for one hour (5% CO2, 37° C.) in RPMI medium. After two washes in HEPES-balanced Krebs-Ringer bicarbonate buffer (123 mmol·L^−1 NaCl, 5.4 mmol·L^−1 KCl, 1.3 mmol·L^−1 KH2PO4, 2.7 mmol·L^−1 MgSO4, 2.9 mmol·L^−1 CaCl2, 5 mmol·L^−1 NaHCO3 and 20 mmol·L^−1 HEPES, pH 7.5) containing 2 g·L^−1 bovine serum albumin (KRB/BSA), INS-1 cells were incubated for one hour (5% CO2, 37° C.) in KRB/BSA containing urolithins at the indicated concentrations in the presence of 1.4 mmol·L^−1 glucose (basal condition) or 8.3 mmol·L^−1 glucose (stimulant condition). When used, H2O2 (50 gmol·L^−1) was added at the beginning of the one-hour incubation period. Control experiments were performed in the basal condition, in the absence of urolithins during the pre-incubation and incubation periods.
Insulin secretion was determined as described above by measuring insulin accumulation after a one-hour incubation period.

[2] = test system: INS-1 insulin-secreting β-cells; experiment: INS-1 cell viability (MTT) in the presence of oxidative stress (H2O2); type: cell-based; conditions: 20 μmol·L^−1 urolithin; 8.3 mmol·L^−1 glucose + H2O2
Protocol: as §1
Cell viability was determined using the 3-(4,5-Dimethylthiazol-2-yl)-2,5-diphenyltetrazolium bromide (MTT) assay. At the end of the one-hour incubation period, cells were washed with KRB/BSA and KRB/BSA containing 5 mg/ml MTT was added to each well. Plates were then incubated for 3 h in the dark in a humidified atmosphere (5% CO2, 37° C.). Cells were washed with phosphate buffered saline (PBS) and precipitates were dissolved in 50 μl dimethyl sulfoxide (DMSO). Absorbance of the reduced intracellular formazan product was read at 492 nm on a microtiter plate reader (Tecan, Lyon, France). Experiments were performed in quadruplicate.

Row | SMILES | concentration active in preventing insulin secretion impairment induced by H2O2 [1] | prevention of viability impairment induced by H2O2 (MTT) [2] | insulin secretion stimulation as compared to control conditions ([1]; 20 μmol·L^−1) | insulin secretion stimulation as compared to control conditions [1]
1 | O=c1oc2cc(O)ccc2c2ccc(O)cc12 [Urolithin A, urolithin A] | 20 µM | no effect |  | 
2 | O=c1oc2cc(O)ccc2c2ccccc12 [Urolithin B, urolithin B] | 5 µM | partially active | 200% | 150%
3 | O=c1oc2cc(O)ccc2c2cc(O)c(O)cc12 [Urolithin C, urolithin C] | 5 µM | totally prevent viability impairment | 200% | 
4 | O=c1oc2c(O)c(O)ccc2c2cc(O)c(O)cc12 [Urolithin D, urolithin D] | 5 µM | totally prevent viability impairment |  | 
